We go through 2 molecules from US11365202B2, “Antimalarial compounds, process for preparation and their use for drug resistant malaria” (Council of Scientific and Industrial Research, priority 2018, dated 2022).

A value given as a limit tells only on which side of the number the result lay.

Data set [1] deals with P. falciparum 3D7. In words: P. falciparum growth inhibition assay, 3D7 strain. It is filed as cell-based. The settings on record: Plasmodium falciparum, 3D7, 48 h, read-out: EC50 on P. falciparum 3D7. On the procedure:
(§1) P. falciparum strain 3D7, Dd2 and 7G8 were cultured in RPMI media (Invitrogen) supplemented with 0.5% albumax and 4% haematocrit using a protocol described previously [Trager and Jensen (Science,1976; 193:673-675)]. Cultures were synchronized by repeated sorbitol treatment following Lambros and Vanderberg (J Parasitol; 1979; 65:418-420). Each growth inhibition assay was performed in triplicate and the experiment was repeated twice. Each well contained 0.5 ml of complete media [RPMI (invitrogen) with 0.5% albumax], 4% haematocrit and the parasitaemia adjusted to ˜1%; the compound added to the parasite cultures to desired final concentrations (0-100 µM) and same amount of solvent (DMSO) was added to the control wells. The cultures were allowed to grow further for 48 h. Parasite growth was assessed by DNA fluorescent dye-binding assay using SYBR green (Sigma) following Smilkstein et al (Antimicrob Agents Chemother.; 2004, 48, 1803-1806). • f) In Vitro Toxicity Assay on CHO Cells

Data set [2] has as its system P. falciparum Dd2. Put plainly: P. falciparum growth inhibition assay, Dd2 strain. It counts as cell-based. The settings on record: Plasmodium falciparum, DD2, read-out: EC50 on P. falciparum Dd2. On the procedure:
as §1

Data set [3] deals with P. falciparum 7G8. In words: P. falciparum growth inhibition assay, 7G8 strain. It is filed as cell-based. The settings on record: Plasmodium falciparum, 7G8, read-out: EC50 on P. falciparum 7G8. Here is the method: as §1
The test system of data set [4] is P. berghei. Put plainly: In vivo parasiticidal assay with P. berghei mice malaria model. The settings on record: for protection in treated group of mice: 12.5 mg/kg of body weight; for Complete Protection - Mice with complete parasite clearance / Survival after treatment: 4 doses of 12.5 mg/Kg of body weight, infected BALB/c mice. Here is the method: Five groups of female BALB/c mice, 6-8 weeks of age (four mice/group) were used for testing the in vivo parsiticidal and protective efficacy of different drug treatments. Mice were injected IP with 1×10^6 P. berghei infected erythrocytes. The drug treatment was initiated 5 days after inducing parasitemia; mice in a group were given 4 doses of a compound at 12.5 mg/Kg of body weight. Control mice were given solvent alone. The parasitemia was assessed everyday in thin smears of Giemsa stained RBCs from tail blood of each mouse, by counting parasitized erythrocytes in more than 10,000 erythrocytes. Time of death of the mice in each group was also monitored.

Data set [5] concerns A549 human cells. Put plainly: In vitro toxicity on mammalian cell culture. It counts as cell-based. The settings on record: for EC50: Homo sapiens, A549, in vitro toxicity.

By EC50 is commonly meant the concentration that produces a half-maximal response. As to `CCOP(=O)(/C=C/C(NC(=O)[C@H](CC(C)C)NC(=O)[C@@H]1C[C@@H](O[C@H]2O[C@@H]3OC4(C)CC[C@H]5[C@H](C)CC[C@@H]([C@H]2C)[C@@]35OO4)CN1C(=O)OCc1ccccc1)c1ccccc1)OCC` (stereo in doubt) [Compound 5, Benzyl (2S,4R)-2-(((2S)-1-(((E)-3-(diethoxyphosphoryl)-1-phenylallyl)amino)-4-methyl-1-oxopentan-2-yl)carbamoyl)-4-(((3R,5aS,6R,8aS,9R,10S,12R,12aR)-3,6,9-trimethyldeca hydro-12H-3,12-epoxy[1,2]dioxepino[4,3-i]isochromen-10-yl)oxy)pyrrolidine-1-carboxylate], in data set [1], the EC50 stood at 2.57 nM. Besides, the EC50 in data set [2] stood at 5.5 nM. In addition, the EC50 in data set [3] was 1.2 nM. In data set [4], the “protection in treated group of mice” value is on record as 100%, the “Complete Protection - Mice with complete parasite clearance” value was 100% of treated mice and the Survival after treatment is above 60 days. In data set [5], the “in vitro toxicity on A549 human cells (in words)” value was “non-toxic” and the EC50 came out at 1280 ± 156 nM.
As to `CCOP(=O)(/C=C/C(NC(=O)[C@H](CC(C)C)NC(=O)[C@H](CO[C@H]1O[C@@H]2OC3(C)CC[C@H]4[C@H](C)CC[C@@H]([C@H]1C)[C@@]24OO3)NC(=O)OCc1ccccc1)c1ccccc1)OCC` (stereo in doubt) [Compound 3, Benzyl ((2S)-1-(((2S)-1-(((E)-3-(diethoxyphosphoryl)-1-phenylallyl)amino)-4-methyl-1-oxopentan-2-yl)amino)-1-oxo-3-(((3R,5aS,6R,8aS,9R,10S,12R,12aR)-3,6,9-trimethyldeca hydro-12H-3,12-epoxy[1,2]dioxepino[4,3-i]isochromen-10-yl)oxy)propan-2-yl)carbamate], the EC50 in data set [1] was determined as 3.3 nM; in data set [2], 3.5 nM; in data set [3] it was 0.23 nM; in data set [5] it was 3820 ± 161 nM. Also, in data set [4], the “protection in treated group of mice” value was 100%. Besides, the “Complete Protection - Mice with complete parasite clearance” value in data set [4] is 100% of treated mice. Also, in data set [4], the Survival after treatment was above 60 days. Moreover, in data set [5], the “in vitro toxicity on A549 human cells (in words)” value is on record as “non-toxic”.
